Results: PubChem BioAssay (NCI)
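Five compound concentrations were applied to cells in 96-well plates for 48 hours; endpoints were derived by simple linear interpolation of the resulting dose-response curve. Abbreviation: GI50, concentration required for 50% inhibition of growth. TGI marks complete inhibition of growth.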

Key:
Assay in all cases: inhibition of tumour cell growth, NCI panel, 48 h
[1] = tested on: 786-0 renal
[2] = tested on: A549 NSCLC
[3] = tested on: HOP-62 NSCLC
[4] = tested on: OVCAR-3 ovarian
[5] = tested on: SF-268 CNS
[6] = tested on: SK-MEL-2 melanoma
[7] = tested on: SN12C renal
[8] = tested on: HS 578T breast
[9] = tested on: MCF7 breast
[10] = tested on: MDA-MB-435

Compound | TGI [1] [µM] | TGI [2] [µM] | TGI [3] [µM] | TGI [4] [µM] | TGI [5] [µM] | TGI [6] [µM] | TGI [7] [µM] | TGI [8] [µM] | TGI [9] [µM] | TGI [10] [µM] | GI50 [1] [µM] | GI50 [2] [µM] | GI50 [3] [µM] | GI50 [9] [µM] | GI50 [10] [µM] | GI50 [4] [µM] | GI50 [5] [µM] | GI50 [7] [µM] | GI50 [8] [µM] | GI50 [6] [µM]
CCOc1ccccc1NC(=O)CCC(=O)OC | > 100 | > 100 | > 100 | > 100 | > 100 | > 100 | > 100 | – | – | – | – | – | – | – | – | – | – | – | – | –
N#C/C(=C\c1ccccc1O)C(N)=O | > 100 | > 100 | > 100 | > 100 | > 100 | > 100 | > 100 | – | – | – | – | – | – | – | – | – | – | – | – | –
CN(C)c1ccc2c(c1)C(=O)N(OS(=O)(=O)c1ccc([N+](=O)[O-])cc1)C2=O | 47.9 | > 100 | > 100 | > 10 | 80.8 | 87 | 56.4 | – | – | – | – | – | – | – | – | – | – | – | – | –
O=C(c1ccc2ccccc2c1O)N1CCCCC1 | > 100 | – | > 100 | – | > 100 | > 100 | – | > 100 | > 100 | > 100 | – | – | – | – | – | – | – | – | – | –
Cc1ccc(C)c(NC(=O)C(=O)CC(=O)C2CCOC2=O)c1 (configuration not stated) | > 100 | > 100 | > 100 | > 100 | > 100 | > 100 | > 100 | – | – | – | – | – | – | – | – | – | – | – | – | –
Nc1nc(CCC(=O)Nc2cccc(C(F)(F)F)c2)cc(-c2cccc3ccccc23)n1 | > 100 | > 100 | > 100 | > 100 | > 100 | > 100 | > 100 | – | – | – | – | – | – | – | – | – | – | – | – | –
Cc1cccc(C(=O)c2cccc3ccccc23)c1C(=O)O | > 100 | > 100 | > 100 | > 100 | > 100 | > 100 | > 100 | – | – | – | – | – | – | – | – | – | – | – | – | –
CC1=C(C(=O)NCc2ccccc2)C(c2ccc(C3C(C(=O)NCc4ccccc4)=C(C)NC(C)=C3C(=O)NCc3ccccc3)cc2)C(C(=O)NCc2ccccc2)=C(C)N1 | 28.9 | 61.3 | 41.1 | 22.9 | 81.7 | 49.9 | 20.5 | – | – | – | – | – | – | – | – | – | – | – | – | –
CC(=O)N1CCN(C2=Nc3ccccc3CO2)C1=S | > 100 | > 100 | > 100 | > 100 | > 100 | – | > 100 | – | > 100 | > 100 | > 100 | > 100 | > 100 | 38.2 | 81.4 | 51.6 | > 100 | > 100 | – | –
COC(=O)Cc1cc(OC)c(OC)cc1Br | > 100 | > 100 | > 100 | > 100 | > 100 | > 100 | > 100 | – | – | – | – | – | – | – | – | – | – | – | – | –
O=C(O)c1ccccc1Cc1ccco1 | > 100 | > 100 | > 100 | > 100 | > 100 | > 100 | > 100 | – | – | – | – | – | – | – | – | – | – | – | – | –
O=C(CC1=Nc2nnc(-c3nnc4n3C(=O)C(CC(=O)c3cccnc3)=N4)n2C1=O)c1cccnc1 | > 100 | > 100 | > 100 | > 100 | > 100 | > 100 | > 100 | – | – | – | – | – | – | – | – | – | – | – | – | –
C#CCC[C@@H]1O[C@@]1(C)CC/C=C(\C)CC/C=C/C=O | > 100 | > 100 | > 100 | 85.9 | 56.3 | > 100 | > 100 | – | – | – | – | – | – | – | – | – | – | – | – | –
CC1CC2C3CC(F)C4=CC(=O)C=CC4(C)C3(F)C(O)CC2(C)C1(O)C(=O)COC(=O)C(C)(C)C (configuration not stated) | > 100 | > 100 | > 100 | > 100 | > 100 | > 100 | – | – | – | – | – | – | – | – | – | – | – | – | – | –
CC1=CCC[C@@]2(C)C(CC[C@@H]2C(C)/C=C/C(C)C)c2ccc(cc2C(=O)O)C[C@@H](O)CC1 (some centres not stated) | 27.9 | 20.3 | 36.5 | 26.8 | 29.7 | 37.5 | 30.4 | – | – | – | – | – | – | – | – | – | – | – | – | –
O=C1c2ccccc2C2(O)Nc3cc(O)ccc3C12O (configuration not stated) | > 100 | > 100 | > 100 | > 100 | > 100 | > 100 | > 100 | – | – | – | – | – | – | – | – | – | – | – | – | –
COc1ccc(-c2[nH]ncc2-c2cc3c(c(OC)c2)OCC(=O)N3)cc1 | > 100 | > 100 | 80.3 | 49 | > 100 | 81.6 | > 100 | 2.24 | 62.4 | – | 1.21 | 1.44 | 0.544 | 0.315 | – | 0.36 | 0.935 | 0.63 | 0.298 | 0.564
CN1C(=O)c2c(ccc3c2OCO3)C2C(O)Cc3cc4c(cc3C21)OCO4 (configuration not stated) | 37.3 | > 100 | – | > 100 | > 100 | 8.44 | > 100 | > 100 | > 100 | – | – | – | – | – | – | – | – | – | – | –

Compound | TGI [1] [µM] | TGI [2] [µM] | TGI [3] [µM] | TGI [4] [µM] | TGI [5] [µM] | TGI [6] [µM] | TGI [7] [µM] | TGI [8] [µM] | TGI [9] [µM] | TGI [10] [µM] | GI50 [1] [µM] | GI50 [2] [µM] | GI50 [3] [µM] | GI50 [9] [µM] | GI50 [10] [µM] | GI50 [4] [µM] | GI50 [5] [µM] | GI50 [7] [µM] | GI50 [8] [µM] | GI50 [6] [µM]
CCC(C)CN1C(=O)NC(C)(Cc2ccccc2)C1=O (configuration not stated) | > 100 | > 100 | > 100 | – | > 100 | > 100 | > 100 | – | – | – | – | – | – | – | – | – | – | – | – | –
Cc1ccc(C(=O)O/N=C2/CCCC/C2=C\c2ccccc2)cc1 | > 100 | 39.3 | > 100 | > 100 | 28.2 | > 100 | > 100 | – | – | – | – | – | – | – | – | – | – | – | – | –
COc1cc(-c2nn3c(/C=C4/C(=O)Nc5ccccc54)c(-c4ccc(C)cc4)nc3s2)cc(OC)c1OC | 21.4 | > 100 | 23.3 | > 100 | > 100 | 30.9 | > 100 | 7.49 | – | – | 5.8 | 2.12 | 4.14 | – | – | 2.9 | 3.62 | 5.26 | 0.505 | 16.3
COc1cc2c(cc1O)C=NCC2 | > 100 | > 100 | – | > 100 | > 100 | > 100 | > 100 | – | – | – | – | – | – | – | – | – | – | – | – | –
N#Cc1cccc(N2C(=O)c3c(c(-c4ccccc4)c(-c4ccc(Sc5ccc(-c6c(-c7ccccc7)c7c(c(-c8ccccc8)c6-c6ccccc6)C(=O)N(c6cccc(C#N)c6)C7=O)cc5)cc4)c(-c4ccccc4)c3-c3ccccc3)C2=O)c1 | > 100 | > 100 | > 100 | > 100 | > 100 | > 100 | > 100 | – | – | – | – | – | – | – | – | – | – | – | – | –
CCC[CH2][Sn]([CH2]CCC)([O]C(=O)c1c(F)cccc1F)[O]C(=O)c1c(F)cccc1F | 2 | 11 | 3.69 | 2.36 | 1.83 | 0.916 | 2.03 | – | – | – | 0.768 | 3.12 | 2.22 | – | – | 1.14 | 0.565 | 0.777 | – | 0.221
O=C(NCCCCCCCCNC(=O)c1cnc2ccccc2n1)c1cnc2ccccc2n1 | > 100 | > 100 | > 100 | > 100 | > 100 | > 100 | > 100 | – | – | – | – | – | – | – | – | – | – | – | – | –
CCCCCCCCCCCOC(=S)NC(C)C | 39.3 | 51.1 | 36.6 | – | 42.7 | 40 | 30.1 | – | – | – | – | – | – | – | – | – | – | – | – | –
COc1ccc(/C(=N/NC(N)=O)C2(O)C(=O)Nc3ccc([N+](=O)[O-])cc32)cc1 (configuration not stated) | 30.2 | > 100 | > 100 | 33.1 | 40.6 | 40.2 | > 10 | – | – | – | – | – | – | – | – | – | – | – | – | –
N=C(c1ccccc1)N(c1ccccc1)c1ccccc1 | > 100 | > 100 | > 100 | – | > 100 | > 100 | > 100 | – | – | – | – | – | – | – | – | – | – | – | – | –
FC(F)(F)C1(Cl)C(c2ccccc2)=C1c1ccccc1 | 31.1 | 28.9 | 32.7 | 31.2 | 30.8 | 28.5 | 29.3 | – | – | – | – | – | – | – | – | – | – | – | – | –
C=C1C(=O)O[C@H]2[C@H]1CC/C(CNC(=O)/C=C/c1ccc(Br)cc1)=C\CC[C@@]1(C)O[C@@H]21 | 2.45 | 8.72 | 6.87 | 1.74 | 4.27 | 3.02 | 3.58 | 4.43 | – | 2.07 | 1.05 | 2.43 | 2.2 | – | 0.632 | 0.511 | 1.78 | 1.22 | 1.44 | 1.4
C=CCC1OC(C)(C)Oc2ccc(OCOCCOC)cc21 (configuration not stated) | > 100 | > 100 | > 100 | > 100 | > 100 | > 100 | > 100 | – | – | – | – | – | – | – | – | – | – | – | – | –
O=C(O)CN(c1ccccc1)S(=O)(=O)c1ccc(NC(=O)c2ccccc2)cc1 | > 100 | > 100 | – | – | > 100 | > 100 | > 100 | – | – | – | – | – | – | – | – | – | – | – | – | –
COc1ccc(S(=O)(=O)NC(C)C(=O)O)cc1 (configuration not stated) | > 100 | > 100 | – | > 100 | > 100 | > 100 | > 100 | – | – | – | – | – | – | – | – | – | – | – | – | –
CC1=CC2CC(C)=C(CC[C@]3(C)CC[C@H]([C@@H](C)C(=O)O)OO3)C(C)(C)C2CC1 (some centres not stated) | 4.78 | 1.06 | 3.41 | 2.99 | 3.24 | 3.09 | 1.9 | – | – | – | – | – | – | – | – | – | – | – | – | –
COc1cc(C(=O)OCCCCCCCCCCC[P+](c2ccccc2)(c2ccccc2)c2ccccc2)ccc1O | 2.38 | – | – | – | – | 1.88 | – | 5.25 | – | 1.24 | 1.06 | – | – | – | 0.312 | – | – | – | 0.549 | 0.522
CC[P+](C)(Cc1ccccc1)c1ccccc1 (configuration not stated) | > 100 | > 100 | > 100 | > 100 | – | > 100 | > 100 | – | – | – | – | – | – | – | – | – | – | – | – | –
